Like-named read-outs stand apart in the source and are kept apart here.
Columns and labels:
GABAA R (α5β2γ2) = target: T1, GABAA R (α5β2γ2) (Homo sapiens, UniProt P18507+P31644); assay: Positive allosteric modulator activity: potentiation of EC20 GABA current in oocytes; assay type: cell-based
T1 construct: expressed in transfected cells
Experimental: On day 1, 1 ng/32 nL of GABAA α5β2γ2 cDNA was injected into one oocyte. Test starts on day 2. The cDNA injected to the oocytes was a mix of alpha, beta and gamma, their ratio is 1:1:10 (by weight) and the total weight of the mixed 3 subunits to be injected in one oocyte was 1 ng in 32 nl volume. The injected oocytes can also be tested on day 3. In such case, the cDNA amount injected to the oocytes should be reduced by 20%.
Compounds of the present disclosure were tested using the following procedures.
8 oocytes were placed in 8 chambers of OpusXpress and superfused with Modified Barth's Saline (MBS) at 3 mL/min. Glass electrodes back-filled with 3M KCl (0.5-3 megaohms) were used. Membrane potential of oocytes was voltage-clamped at −60 mV. • 2).
Control Test (Diazepam or Methyl 3,5-Diphenylpyridazine-4-Carboxylate) • 1). New oocytes was used to run new test. • 2). […] Oocytes were washed with MBS for 5-10 min. • 4). […] Itest was divided by IGABA to obtain potentiation (%).
Test Compounds at Multiple Doses • 1). Repeat the above steps 1), 2) and 3) in the control test. • 2). […] Divide Itest by IGABA to obtain potentiation (%). • 3). Discard all tested oocytes, new oocytes were used and the above steps 1) and 2) were repeated to test second concentration of the same compound. Each oocyte was used for only one concentration test for a single test compound. The steps were repeated for other test compounds.

α5β3γ2 GABAA R = α5β3γ2 GABAA R (Homo sapiens, UniProt P18507+P31644); assay: Binding activity on GABAA R: inhibition of [3H]Ro15-1788 binding, α5 containing receptor
Chain of α5β3γ2 GABAA R (P31644 32-462): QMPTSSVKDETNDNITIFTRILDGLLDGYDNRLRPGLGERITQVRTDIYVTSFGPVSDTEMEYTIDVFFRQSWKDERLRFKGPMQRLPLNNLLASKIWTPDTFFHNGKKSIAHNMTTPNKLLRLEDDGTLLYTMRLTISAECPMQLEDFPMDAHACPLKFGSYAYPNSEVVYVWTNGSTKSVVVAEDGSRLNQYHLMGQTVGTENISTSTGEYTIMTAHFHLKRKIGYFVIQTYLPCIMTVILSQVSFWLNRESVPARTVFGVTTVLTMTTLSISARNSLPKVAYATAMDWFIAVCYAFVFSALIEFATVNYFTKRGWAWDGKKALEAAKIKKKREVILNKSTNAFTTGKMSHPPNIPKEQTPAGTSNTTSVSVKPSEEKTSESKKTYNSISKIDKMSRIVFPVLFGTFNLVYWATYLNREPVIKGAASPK
Chain of α5β3γ2 GABAA R (P28472 26-473 partner): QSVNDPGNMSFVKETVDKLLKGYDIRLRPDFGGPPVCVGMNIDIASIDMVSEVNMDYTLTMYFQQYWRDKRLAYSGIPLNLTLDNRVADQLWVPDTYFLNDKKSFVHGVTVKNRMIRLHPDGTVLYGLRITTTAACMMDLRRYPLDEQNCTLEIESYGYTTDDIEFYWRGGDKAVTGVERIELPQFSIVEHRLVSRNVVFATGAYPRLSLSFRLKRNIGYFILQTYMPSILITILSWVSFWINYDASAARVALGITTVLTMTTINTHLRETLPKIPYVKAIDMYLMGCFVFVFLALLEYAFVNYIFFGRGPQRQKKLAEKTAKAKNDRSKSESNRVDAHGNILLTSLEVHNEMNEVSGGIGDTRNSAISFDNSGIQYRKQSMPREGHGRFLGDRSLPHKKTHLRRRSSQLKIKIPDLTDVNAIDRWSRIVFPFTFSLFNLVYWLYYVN
Chain of α5β3γ2 GABAA R (P18507 40-475): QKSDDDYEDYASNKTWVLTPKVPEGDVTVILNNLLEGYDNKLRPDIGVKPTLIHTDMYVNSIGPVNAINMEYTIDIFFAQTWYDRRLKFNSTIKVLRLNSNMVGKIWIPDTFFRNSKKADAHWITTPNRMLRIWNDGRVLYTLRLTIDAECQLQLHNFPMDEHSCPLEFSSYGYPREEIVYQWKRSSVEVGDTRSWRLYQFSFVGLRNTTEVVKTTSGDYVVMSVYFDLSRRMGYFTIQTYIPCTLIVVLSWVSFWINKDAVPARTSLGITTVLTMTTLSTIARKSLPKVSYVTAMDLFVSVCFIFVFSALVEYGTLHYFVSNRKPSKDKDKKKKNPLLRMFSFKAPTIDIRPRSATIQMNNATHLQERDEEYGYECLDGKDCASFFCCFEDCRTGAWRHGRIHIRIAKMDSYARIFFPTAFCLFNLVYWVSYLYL
Procedure, shortened: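 Displacement of [3H]Ro15-1788 (flumazenil) measured at 4 °C over 1 h using 0.2 mg/ml membrane protein from Ltk cells carrying α5β3γ2 GABAA receptors, expression induced with 0.5 μM dexamethasone for 1 day; buffer pH 7.4 KH2PO4/EDTA/KCl. 10 μM diazepam defined nonspecific binding; filter-trapped radioactivity counted, in triplicate.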

[1] = read-out: GABA α5 Functional Data: potentiation, @ 100 nM, EC20 GABA, ranges of the column heads
[2] = read-out: GABA α5 Functional Data: potentiation
[3] = ranges of the column heads, [3H]Ro15-1788, Ltk cell membranes

T1 sequence (P31644 32-462): as the sequence (P31644 32-462) above
T1 sequence (P47870 25-512 partner limits assumed): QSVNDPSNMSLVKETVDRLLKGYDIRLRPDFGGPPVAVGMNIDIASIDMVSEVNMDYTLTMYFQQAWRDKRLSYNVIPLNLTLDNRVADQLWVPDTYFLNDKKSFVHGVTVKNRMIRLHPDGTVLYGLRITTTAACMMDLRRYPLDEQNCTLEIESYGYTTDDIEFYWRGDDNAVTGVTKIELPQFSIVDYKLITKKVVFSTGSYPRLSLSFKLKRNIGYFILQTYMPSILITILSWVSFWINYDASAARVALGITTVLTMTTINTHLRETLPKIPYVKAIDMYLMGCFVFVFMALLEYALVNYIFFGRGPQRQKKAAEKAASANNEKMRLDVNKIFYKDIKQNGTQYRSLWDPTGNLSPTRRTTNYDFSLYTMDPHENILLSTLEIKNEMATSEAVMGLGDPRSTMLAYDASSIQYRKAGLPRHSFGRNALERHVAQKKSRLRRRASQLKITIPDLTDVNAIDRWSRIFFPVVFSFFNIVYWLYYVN
T1 sequence (P18507 40-475): as the sequence (P18507 40-475) above

Row | activation at 0.1 µM (GABAA R (α5β2γ2); [2]) [%] | Ki (α5β3γ2 GABAA R; [3]) [nM] | SMILES | activation at 0.1 µM (GABAA R (α5β2γ2); [1]) [%] | Ki (α5β3γ2 GABAA R) [nM]
1 | – | – | CCn1cc2c(n1)-c1cc(Cl)ccc1-n1cnc(-c3noc(COC4CCCC4)n3)c1C2 [Compound 194] | 20 to 50 | < 100
2 | – | – | COc1ccc2c(c1)-c1nn(CC3COC3)cc1Cc1c(-c3noc(COCC(F)(F)F)n3)ncn1-2 [Compound 314] | 5 to 20 | < 100
3 | – | – | COC1(c2nc(-c3ncn4c3Cc3cn(C)nc3-c3cc(Cl)ccc3-4)no2)CC1 [Compound 216] | 5 to 20 | < 100
4 | – | – | COc1ccc2c(c1)-c1nn(C)cc1Cc1c(-c3nc(C4CCOC4)no3)ncn1-2 (stereo not shown) [Compound 126] | 20 to 50 | < 100
5 | – | – | Cn1cc2c(n1)-c1cc(Cl)ccc1-n1cnc(-c3noc(C4(C)COC4)n3)c1C2 [Compound 225] | 20 to 50 | < 100
6 | – | – | Clc1ccc2c(c1)-c1nn(CC3CCCO3)cc1Cc1c(-c3nc(C4CCOC4)no3)ncn1-2 (stereo not shown) [Compound 281] | 5 to 20 | < 100
7 | 5 to 20 | < 100 | Cc1nc(-c2ncn3c2Cc2cn(C(C)C)nc2-c2cc(Cl)ccc2-3)no1 [Compound 147] | – | –
8 | – | – | COc1ccc2c(c1)-c1[nH]ncc1Cc1c(C#CC(C)(C)C)ncn1-2 [Compound 73] | 5 to 20 | < 100
9 | – | – | CC(C)n1cc2c(n1)-c1cc(Cl)ccc1-n1cnc(-c3noc(C4CC4)n3)c1C2 [Compound 149] | 20 to 50 | < 100
10 | – | – | Cc1noc(-c2ncn3c2Cc2cn(C)nc2-c2cc(Cl)ccc2-3)n1 [Compound 121] | 20 to 50 | < 100
11 | – | – | Clc1ccc2c(c1)-c1nn(CC3COC3)cc1Cc1c(-c3nc(C4CC4)no3)ncn1-2 [Compound 224] | 20 to 50 | < 100
12 | 5 to 20 | < 100 | Clc1ccc2c(c1)-c1nn(CC3CC3)cc1Cc1c(-c3ncco3)ncn1-2 [Compound 172] | – | –
13 | – | – | COc1ccc2c(c1)-c1nn(C)cc1Cc1c(-c3noc(C4COCCO4)n3)ncn1-2 (stereo not shown) [Compound 207] | 20 to 50 | < 100
14 | 5 to 20 | < 100 | CC(C)c1noc(-c2ncn3c2Cc2cn(Cc4ccccc4)nc2-c2cc(Cl)ccc2-3)n1 [Compound 96] | – | –
15 | – | – | COc1ccc2c(c1)-c1nn(C)cc1Cc1c(-c3noc(C4(OC)CC4)n3)ncn1-2 [Compound 203] | 20 to 50 | < 100
16 | – | – | Cc1nc(-c2ncn3c2Cc2cn(C)nc2-c2cc(Cl)ccc2-3)no1 [Compound 140] | 5 to 20 | < 100
17 | – | – | COc1ccc2c(c1)-c1nn(C)cc1Cc1c(-c3noc(C4(F)CC4)n3)ncn1-2 [Compound 205] | 20 to 50 | < 100
18 | – | – | CC(C)c1noc(-c2ncn3c2Cc2cn(CC4CCCO4)nc2-c2cc(Cl)ccc2-3)n1 (stereo not shown) [Compound 193] | 20 to 50 | < 100
19 | 5 to 20 | < 100 | CCn1cc2c(n1)-c1cc(Cl)ccc1-n1cnc(-c3nc(C(C)C)no3)c1C2 [Compound 104] | – | –
20 | 5 to 20 | < 100 | COC(C)(C)c1noc(-c2ncn3c2Cc2cn(C)nc2-c2cc(Cl)ccc2-3)n1 [Compound 233] | – | –
21 | – | – | Cn1cc2c(n1)-c1cc(Cl)ccc1-n1cnc(-c3nc(C(F)(F)F)no3)c1C2 [Compound 122] | 5 to 20 | < 100
22 | – | – | COCc1nc(-c2ncn3c2Cc2cn(CC4CCCO4)nc2-c2cc(Cl)ccc2-3)no1 (stereo not shown) [Compound 304] | 5 to 20 | < 100
23 | – | – | FC(F)(F)c1nc(-c2ncn3c2Cc2cn[nH]c2-c2cc(Cl)ccc2-3)no1 [Compound 85] | 5 to 20 | < 100
